Laboratory results: patent US11459341B1, “Organic anion lithium ionic cocrystal compounds and compositions” (UNIVERSITY OF SOUTH FLORIDA, priority 2013, dated 2022)

System: BV2 microglia cells
Assay: NO (nitrite) production by LPS-activated BV2 microglia, Griess Reagent System
Type: cell-based
Details: treated 1 hour before 100 ng/ml LPS, nitrite in media 24 hours later
Method: BV2 microglia cells were treated with LIC (LiCl), LSC (Lithium saccharinate), LSCBTN and LSCSAR at 12.5 and 25 mM in DMEM for 1 hour prior to activation of microglia by 100 ng/ml LPS. Nitrite (NO^2−), a stable breakdown product of NO, was measured in the media 24 hours later using a Griess Reagent System (Promega).

Compound | inhibition of NO production by LPS-activated BV2 microglia (25 mM) | attenuation of NO production by LPS-activated BV2 microglia, comparison between lithium forms (12.5 and 25 mM (both/all concentrations tested))
[Cl-].[Li+] [LIC, LiCl] | only partially effective | 
O=C1[N-]S(=O)(=O)c2ccccc21.[Li+] [LSC, Lithium saccharinate] |  | outperformed LIC
